How the values were obtained:
[1] = molecular target: Serine/threonine-protein kinase B-raf (Homo sapiens, UniProt P15056); assay: Inhibition of human recombinant B-Raf expressed in Sf9 cells assessed as inhibition of Mek1 phosphorylation
[2] = molecular target: Mitogen-activated protein kinase kinase kinase 8 (Homo sapiens, UniProt P41279); assay: Inhibition of Tpl2
[3] = molecular target: Tyrosine-protein kinase Lck (Homo sapiens, UniProt P06239); assay: Inhibition of LCK
HT-29 = assay: Growth inhibition of human HT-29 cells; format: functional, cell-based
BXPC-3 = assay: Growth inhibition of human BxPC3 cells; format: functional, cell-based
[4] = molecular target: RAC-alpha serine/threonine-protein kinase (Homo sapiens, UniProt P31749); assay: Inhibition of AKT
Chain of RAC-alpha serine/threonine-protein kinase (P31749 whole entry, canonical isoform): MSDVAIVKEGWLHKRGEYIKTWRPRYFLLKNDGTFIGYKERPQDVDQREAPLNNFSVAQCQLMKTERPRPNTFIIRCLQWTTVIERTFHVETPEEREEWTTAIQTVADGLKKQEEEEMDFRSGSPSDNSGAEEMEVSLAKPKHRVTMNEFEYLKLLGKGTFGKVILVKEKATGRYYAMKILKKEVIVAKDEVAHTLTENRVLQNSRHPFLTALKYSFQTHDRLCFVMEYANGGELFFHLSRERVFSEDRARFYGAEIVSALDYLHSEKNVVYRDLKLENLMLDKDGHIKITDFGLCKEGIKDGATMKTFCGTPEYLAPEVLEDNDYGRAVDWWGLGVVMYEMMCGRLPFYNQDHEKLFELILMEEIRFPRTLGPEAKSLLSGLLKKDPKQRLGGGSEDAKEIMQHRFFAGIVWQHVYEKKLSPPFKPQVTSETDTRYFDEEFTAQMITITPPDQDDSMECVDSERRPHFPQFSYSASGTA

[5] = molecular target: Phosphatidylinositol 4,5-bisphosphate 3-kinase catalytic subunit alpha isoform (Homo sapiens, UniProt P42336); assay: Inhibition of PI3Kalpha
Chain of Phosphatidylinositol 4,5-bisphosphate 3-kinase catalytic subunit alpha isoform (P42336 whole entry, canonical isoform): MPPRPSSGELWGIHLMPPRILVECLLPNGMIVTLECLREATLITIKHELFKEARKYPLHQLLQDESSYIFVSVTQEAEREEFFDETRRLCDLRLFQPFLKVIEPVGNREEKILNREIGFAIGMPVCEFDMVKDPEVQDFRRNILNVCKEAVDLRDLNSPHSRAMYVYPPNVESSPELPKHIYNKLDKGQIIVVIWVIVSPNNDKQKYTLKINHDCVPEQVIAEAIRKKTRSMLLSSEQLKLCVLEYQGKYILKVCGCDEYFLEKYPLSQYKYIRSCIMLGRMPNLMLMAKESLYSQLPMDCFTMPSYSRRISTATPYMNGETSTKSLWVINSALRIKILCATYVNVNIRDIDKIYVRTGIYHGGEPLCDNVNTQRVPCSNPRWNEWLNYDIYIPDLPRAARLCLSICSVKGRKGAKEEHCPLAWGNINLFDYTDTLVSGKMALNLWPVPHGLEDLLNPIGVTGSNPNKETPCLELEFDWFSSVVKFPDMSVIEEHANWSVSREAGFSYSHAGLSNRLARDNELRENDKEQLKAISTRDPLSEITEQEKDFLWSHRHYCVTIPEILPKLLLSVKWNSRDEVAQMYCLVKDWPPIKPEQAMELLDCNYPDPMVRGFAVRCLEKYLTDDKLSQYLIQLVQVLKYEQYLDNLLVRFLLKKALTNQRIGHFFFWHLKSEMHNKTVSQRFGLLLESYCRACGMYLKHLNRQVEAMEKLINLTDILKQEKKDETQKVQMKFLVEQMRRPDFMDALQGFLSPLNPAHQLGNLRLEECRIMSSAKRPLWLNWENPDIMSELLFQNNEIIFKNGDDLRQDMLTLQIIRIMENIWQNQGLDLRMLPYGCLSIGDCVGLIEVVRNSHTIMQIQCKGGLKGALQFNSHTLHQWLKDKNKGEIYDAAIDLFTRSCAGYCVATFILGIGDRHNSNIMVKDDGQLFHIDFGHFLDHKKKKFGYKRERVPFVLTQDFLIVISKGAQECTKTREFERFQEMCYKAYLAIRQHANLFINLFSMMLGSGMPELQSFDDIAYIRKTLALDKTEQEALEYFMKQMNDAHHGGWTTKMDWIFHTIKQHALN

Caco-2 = assay: Growth inhibition of human Caco-2 cells; format: functional, cell-based
[6] = Growth inhibition of human WM266.4 cells; format: functional, cell-based; details: WM 266-4
[7] = molecular target: Proto-oncogene tyrosine-protein kinase Src (Homo sapiens, UniProt P12931); assay: Inhibition of SRC
Chain of Proto-oncogene tyrosine-protein kinase Src (P12931 2-536 limits assumed): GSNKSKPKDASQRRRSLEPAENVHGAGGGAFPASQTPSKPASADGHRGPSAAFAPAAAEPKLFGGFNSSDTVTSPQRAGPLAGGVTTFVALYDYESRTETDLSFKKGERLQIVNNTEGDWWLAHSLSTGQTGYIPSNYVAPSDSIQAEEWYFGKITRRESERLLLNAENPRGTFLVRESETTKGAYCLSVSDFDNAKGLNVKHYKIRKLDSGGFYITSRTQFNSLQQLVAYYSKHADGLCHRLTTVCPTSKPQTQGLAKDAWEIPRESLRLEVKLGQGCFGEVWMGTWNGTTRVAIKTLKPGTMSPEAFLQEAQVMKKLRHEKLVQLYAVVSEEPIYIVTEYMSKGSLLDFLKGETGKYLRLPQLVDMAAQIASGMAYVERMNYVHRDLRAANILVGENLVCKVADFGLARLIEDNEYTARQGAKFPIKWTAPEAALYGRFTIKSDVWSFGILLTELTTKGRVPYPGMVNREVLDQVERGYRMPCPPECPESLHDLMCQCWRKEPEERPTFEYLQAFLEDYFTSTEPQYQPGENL

[8] = molecular target: Tyrosine-protein kinase Lyn (Homo sapiens, UniProt P07948); assay: Inhibition of LYN
[9] = molecular target: Vascular endothelial growth factor receptor 2 (Homo sapiens, UniProt P35968); assay: Inhibition of KDR
SW-620 = assay: Growth inhibition of human SW620 cells; format: functional, cell-based
[10] = molecular target: Tyrosine-protein kinase BTK (Homo sapiens, UniProt Q06187); assay: Inhibition of BTK
Chain of Tyrosine-protein kinase BTK (Q06187 whole entry): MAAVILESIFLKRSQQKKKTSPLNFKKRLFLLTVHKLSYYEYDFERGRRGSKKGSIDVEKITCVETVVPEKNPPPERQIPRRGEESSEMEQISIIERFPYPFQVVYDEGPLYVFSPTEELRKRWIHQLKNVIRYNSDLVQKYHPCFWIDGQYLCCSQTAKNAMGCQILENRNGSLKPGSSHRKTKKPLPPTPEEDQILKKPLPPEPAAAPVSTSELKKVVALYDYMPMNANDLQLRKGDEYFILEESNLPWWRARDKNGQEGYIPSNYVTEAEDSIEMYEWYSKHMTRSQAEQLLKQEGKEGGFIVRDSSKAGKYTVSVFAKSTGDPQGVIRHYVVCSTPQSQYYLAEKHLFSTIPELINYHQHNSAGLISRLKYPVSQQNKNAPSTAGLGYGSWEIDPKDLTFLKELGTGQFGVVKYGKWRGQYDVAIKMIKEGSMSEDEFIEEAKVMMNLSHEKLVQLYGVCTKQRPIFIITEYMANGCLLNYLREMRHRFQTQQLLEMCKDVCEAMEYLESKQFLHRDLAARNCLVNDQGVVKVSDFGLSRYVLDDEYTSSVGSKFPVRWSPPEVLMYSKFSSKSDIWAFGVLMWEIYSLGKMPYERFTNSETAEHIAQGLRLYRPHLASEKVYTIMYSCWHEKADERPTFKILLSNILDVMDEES

[11] = molecular target: Cyclin-dependent kinase 4 (Homo sapiens, UniProt P11802); assay: Inhibition of CDK4
Chain of Cyclin-dependent kinase 4 (P11802 whole entry): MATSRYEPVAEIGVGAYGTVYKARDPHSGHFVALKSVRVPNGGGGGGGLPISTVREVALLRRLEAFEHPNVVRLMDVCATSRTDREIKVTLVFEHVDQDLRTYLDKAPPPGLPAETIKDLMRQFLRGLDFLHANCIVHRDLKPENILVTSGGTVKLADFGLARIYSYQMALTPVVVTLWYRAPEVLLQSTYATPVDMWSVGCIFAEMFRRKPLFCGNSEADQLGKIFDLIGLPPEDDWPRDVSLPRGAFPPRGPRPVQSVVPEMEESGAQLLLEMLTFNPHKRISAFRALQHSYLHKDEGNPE

LoVo = assay: Growth inhibition of human LoVo cells; format: functional, cell-based
[12] = molecular target: Insulin-like growth factor 1 receptor (Homo sapiens, UniProt P08069); assay: Inhibition of IGFR1
[13] = molecular target: Serine/threonine-protein kinase mTOR (Homo sapiens, UniProt P42345); assay: Inhibition of mTOR
A-375 = assay: Growth inhibition of human A375 cells; format: functional, cell-based

Chain of Serine/threonine-protein kinase B-raf (P15056 whole entry): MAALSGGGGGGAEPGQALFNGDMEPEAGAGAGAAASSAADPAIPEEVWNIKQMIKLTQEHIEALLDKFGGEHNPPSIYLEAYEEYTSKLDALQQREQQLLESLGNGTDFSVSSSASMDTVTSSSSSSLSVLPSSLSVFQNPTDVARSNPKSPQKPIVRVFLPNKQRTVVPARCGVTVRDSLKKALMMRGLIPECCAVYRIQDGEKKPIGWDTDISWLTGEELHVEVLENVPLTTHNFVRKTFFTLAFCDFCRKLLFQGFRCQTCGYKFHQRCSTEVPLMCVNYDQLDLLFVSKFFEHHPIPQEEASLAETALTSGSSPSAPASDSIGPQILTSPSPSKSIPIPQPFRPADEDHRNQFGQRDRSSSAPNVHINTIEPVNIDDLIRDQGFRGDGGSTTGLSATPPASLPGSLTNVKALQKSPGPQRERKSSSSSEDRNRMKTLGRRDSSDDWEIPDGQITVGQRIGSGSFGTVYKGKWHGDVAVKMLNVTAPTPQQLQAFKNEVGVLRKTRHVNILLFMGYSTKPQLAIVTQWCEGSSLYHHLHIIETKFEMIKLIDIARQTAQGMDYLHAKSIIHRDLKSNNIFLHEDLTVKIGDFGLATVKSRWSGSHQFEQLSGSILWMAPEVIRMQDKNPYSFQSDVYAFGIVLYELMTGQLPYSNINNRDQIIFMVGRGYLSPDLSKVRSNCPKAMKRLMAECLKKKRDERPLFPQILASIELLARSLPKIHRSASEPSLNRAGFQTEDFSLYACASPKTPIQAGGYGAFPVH
Chain of Mitogen-activated protein kinase kinase kinase 8 (P41279 whole entry): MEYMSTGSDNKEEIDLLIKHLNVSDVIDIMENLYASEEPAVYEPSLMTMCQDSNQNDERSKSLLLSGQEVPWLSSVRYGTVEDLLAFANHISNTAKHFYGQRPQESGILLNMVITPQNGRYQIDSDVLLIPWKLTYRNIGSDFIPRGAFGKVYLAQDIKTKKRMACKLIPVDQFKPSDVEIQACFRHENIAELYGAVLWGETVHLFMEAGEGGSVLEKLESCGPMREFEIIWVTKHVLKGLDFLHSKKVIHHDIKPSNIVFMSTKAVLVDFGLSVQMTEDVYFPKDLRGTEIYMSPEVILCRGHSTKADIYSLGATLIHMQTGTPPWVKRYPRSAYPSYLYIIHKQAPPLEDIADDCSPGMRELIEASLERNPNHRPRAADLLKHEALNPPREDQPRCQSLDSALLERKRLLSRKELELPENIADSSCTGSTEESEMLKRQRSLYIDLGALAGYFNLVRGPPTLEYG
Chain of Tyrosine-protein kinase Lck (P06239 whole entry): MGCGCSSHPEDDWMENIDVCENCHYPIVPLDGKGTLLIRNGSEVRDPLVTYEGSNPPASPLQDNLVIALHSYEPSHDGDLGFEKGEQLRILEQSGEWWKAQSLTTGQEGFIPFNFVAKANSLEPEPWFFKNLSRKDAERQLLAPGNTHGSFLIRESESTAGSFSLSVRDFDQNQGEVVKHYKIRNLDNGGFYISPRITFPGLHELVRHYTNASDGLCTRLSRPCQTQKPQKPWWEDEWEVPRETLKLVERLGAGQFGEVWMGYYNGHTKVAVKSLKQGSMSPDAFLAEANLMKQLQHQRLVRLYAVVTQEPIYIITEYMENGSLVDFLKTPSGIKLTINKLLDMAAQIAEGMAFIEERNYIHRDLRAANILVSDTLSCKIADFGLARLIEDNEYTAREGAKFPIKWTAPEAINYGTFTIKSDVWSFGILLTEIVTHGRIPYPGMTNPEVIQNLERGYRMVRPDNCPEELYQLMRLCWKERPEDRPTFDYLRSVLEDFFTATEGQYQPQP

O=C(Nc1cccc(-c2ccnc3c(C(=O)NCCN4CCOCC4)cnn23)c1)Nc1ccc(Cl)c(C(F)(F)F)c1
IC50 [1]: 0.16 µM

CCOC(=O)c1cnn2c(-c3cccc(NC(=O)c4cccc(OC(F)(F)F)c4)c3)ccnc12
IC50 [1]: 1.57 µM

CCOC(=O)c1cnn2c(-c3cccc(NC(=O)c4ccc(OC)c(C(F)(F)F)c4)c3)ccnc12
IC50 [1]: 1.03 µM

O=C(Nc1cccc(-c2ccnc3c(C(=O)NCCN4CCOCC4)cnn23)c1)c1cccc(C(F)(F)F)c1
IC50 [1]: 6.34 µM

CCOC(=O)c1cnn2c(-c3cccc(NC(=O)c4cccc(C#N)c4)c3)ccnc12
IC50 [1]: > 10 µM

CCOC(=O)c1cnn2c(-c3cccc(NC(=O)Nc4ccc(C)c(C(F)(F)F)c4)c3)ccnc12
IC50 [1]: 0.36 µM

COCCCNC(=O)c1cnn2c(-c3cccc(NC(=O)Nc4ccc(Cl)c(C(F)(F)F)c4)c3)ccnc12
IC50 [1]: 0.27 µM

CCOC(=O)c1cnn2c(-c3cccc(NC(=O)c4ccccc4)c3)ccnc12
IC50 [1]: > 10 µM

CCOC(=O)c1cnn2c(-c3cccc(NC(=O)Nc4cccc(C(F)(F)F)c4)c3)ccnc12
IC50 [1]: 0.54 µM

CCOC(=O)c1cnn2c(-c3cccc(NC(=O)Nc4cc(C(F)(F)F)ccc4Cl)c3)ccnc12
IC50 [1]: > 10 µM

CCOC(=O)c1cnn2c(-c3cccc(NC(=O)Nc4cccc(Cl)c4)c3)ccnc12
IC50 [1]: > 10 µM

CCOC(=O)c1cnn2c(-c3cccc(NC(=O)Nc4ccc(F)c(C(F)(F)F)c4)c3)ccnc12
IC50 [1]: 0.24 µM

CCN(CC)CCNC(=O)c1cnn2c(-c3cccc(NC(=O)Nc4ccc(Cl)c(C(F)(F)F)c4)c3)ccnc12
IC50 [1]: 0.17 µM

CCOC(=O)c1cnn2c(-c3cccc(NC(=O)Nc4ccc(C(F)(F)F)cc4)c3)ccnc12
IC50 [1]: 3.6 µM

CCOC(=O)c1cnn2c(-c3cccc(NC(=O)c4cc(C(F)(F)F)ccc4C)c3)ccnc12
IC50 [1]: > 10 µM

CCOC(=O)c1cnn2c(-c3cccc(NC(=O)c4ccc(Cl)c(C(F)(F)F)c4)c3)ccnc12
IC50 [1]: 4.27 µM

CCOC(=O)c1cnn2c(-c3cccc(NC(=O)Nc4ccc(Cl)c(C(F)(F)F)c4)c3)ccnc12
IC50 [1]: 0.36 µM

O=C(Nc1cccc(-c2ccnc3c(C(=O)OCC(F)(F)F)cnn23)c1)c1cccc(C(F)(F)F)c1
IC50 [1]: 1.45 µM

CCOC(=O)c1cnn2c(-c3cccc(NC(=O)c4cccc(C(F)(F)F)c4)c3)ccnc12
IC50 [2]: > 10 µM | IC50 [1]: 1.54 µM | IC50 [3]: > 10 µM | IC50 (HT-29): 7 µM | IC50 (BXPC-3): 3.25 µM | IC50 [4]: > 10 µM | IC50 [5]: > 10 µM | IC50 (Caco-2): 6.6 µM | IC50 [6]: 6.2 µM | IC50 [7]: > 10 µM | IC50 [8]: > 10 µM | IC50 [9]: > 10 µM | IC50 (SW-620): 8.3 µM | IC50 [10]: > 10 µM | IC50 [11]: > 10 µM | IC50 (LoVo): 3.87 µM | IC50 [12]: > 10 µM | IC50 [13]: > 10 µM | IC50 (A-375): 3.8 µM

Reference: ChEMBL document CHEMBL1151868, “Identification of pyrazolo[1,5-a]pyrimidine-3-carboxylates as B-Raf kinase inhibitors” (Bioorg Med Chem Lett, 2009)
